According to patent publication US9758485B2, “Compounds for controlling arthropods” (priority 2013, dated 2017):

Test system: Boophilus microplus
Assay: Boophilus microplus - injection test
Type: in vivo
Conditions: application rate 20 μg/animal; injected into engorged adult female ticks; laying of fertile eggs, after 7 days
Protocol: Boophilus microplus—Injection Test
(§1) Solvent: dimethyl sulphoxide
To produce an appropriate active ingredient formulation, 10 mg of active ingredient are mixed with 0.5 ml of solvent and the concentrate is diluted with solvent to the desired concentration.
1 μl of the active ingredient solution is injected into the abdomen of 5 engorged adult female cattle ticks (Boophilus microplus). The animals are transferred into dishes and kept in a climate-controlled room.
Efficacy is assessed after 7 days by laying of fertile eggs. Eggs which are not visibly fertile are stored in a climate-controlled cabinet until the larvae hatch after about 42 days. An efficacy of 100% means that none of the ticks has laid any fertile eggs; 0% means that all the eggs are fertile.

| Compound | efficacy [%] |
| --- | --- |
| Cc1ncc(-c2cnn(-c3c(Cl)cc(C(F)(F)F)cc3Cl)c2)cc1C(=O)NC1CC1 [I-T3-127] | 100 |
| Cc1ncc(-c2cnn(-c3c(Cl)cc(C(F)(F)F)cc3Cl)c2)cc1C(=O)N(C)C1CC1 [I-T3-128] | 100 |
| Cc1ncc(-c2cnn(-c3c(Cl)cc(C(F)(F)F)cc3Cl)c2)cc1C(=O)NC1(C#N)CC1 [I-T3-129] | 100 |
| Cc1ncc(-c2cnn(-c3c(Cl)cc(C(F)(F)F)cc3Cl)c2)cc1C(=O)N(C)C1(C#N)CC1 [I-T3-132] | 100 |
| CNc1ncc(-c2cnn(-c3c(Cl)cc(C(F)(C(F)(F)F)C(F)(F)F)cc3Cl)c2)cc1C(=O)NC1CC1 [I-T3-136] | 100 |
| O=C(NC1CC1)c1cc(-c2cnn(-c3c(Cl)cc(C(F)(C(F)(F)F)C(F)(F)F)cc3Cl)c2)cnc1NC1CC1 [I-T3-137] | 100 |
| CCN(C(=O)c1cc(-c2cnn(-c3c(Cl)cc(C(F)(F)F)cc3Cl)c2)cnc1Cl)C1CC1 [I-T3-145] | 100 |
| Cc1cc(C(F)(C(F)(F)F)C(F)(F)F)cc(C)c1-c1cc(-c2ccc(Cl)c(C(=O)NCC(F)(F)F)c2)on1 [I-T22-3] | 100 |
| N#CC1(NC(=O)c2cc(-c3cc(-c4c(Cl)cc(C(F)(C(F)(F)F)C(F)(F)F)cc4Cl)on3)ccc2Cl)CC1 [I-T23-2] | 100 |
| Cc1cc(C(F)(C(F)(F)F)C(F)(F)F)cc(C)c1-n1ccc(-c2ccc(Cl)c(C(=O)NC3CC3)c2)c1 [I-T46-2] | 100 |

Test system: Musca domestica
Assay: Musca domestica test
Type: in vivo
Conditions: application rate 100 ppm; adult houseflies; kill after 2 days
Protocol: as §1
(§2) To produce an appropriate active ingredient formulation, 10 mg of active ingredient are mixed with 0.5 ml of dimethyl sulphoxide, and the concentrate is diluted with water to the desired concentration.
Vessels containing a sponge treated with sugar solution and the active ingredient formulation of the desired concentration are populated with 10 adult houseflies (Musca domestica).
After 2 days, the kill in % is determined. 100% means that all of the flies have been killed; 0% means that none of the flies have been killed.

| Compound | efficacy [%] |
| --- | --- |
| Cc1ncc(-c2cnn(-c3c(Cl)cc(C(F)(F)F)cc3Cl)c2)cc1C(=O)NC1(C#N)CC1 [I-T3-129] | 80 |
| CNc1ncc(-c2cnn(-c3c(Cl)cc(C(F)(C(F)(F)F)C(F)(F)F)cc3Cl)c2)cc1C(=O)NC1CC1 [I-T3-136] | 100 |
| O=C(NC1CC1)c1cc(-c2cnn(-c3c(Cl)cc(C(F)(C(F)(F)F)C(F)(F)F)cc3Cl)c2)cnc1NC1CC1 [I-T3-137] | 100 |
| CCN(C(=O)c1cc(-c2cnn(-c3c(Cl)cc(C(F)(F)F)cc3Cl)c2)cnc1Cl)C1CC1 [I-T3-145] | 90 |
| Cc1cc(C(F)(C(F)(F)F)C(F)(F)F)cc(C)c1-c1cc(-c2ccc(Cl)c(C(=O)NCC(F)(F)F)c2)on1 [I-T22-3] | 100 |
| N#CC1(NC(=O)c2cc(-c3cc(-c4c(Cl)cc(C(F)(C(F)(F)F)C(F)(F)F)cc4Cl)on3)ccc2Cl)CC1 [I-T23-2] | 100 |

Test system: Lucilia cuprina
Assay: Lucilia cuprina test
Type: in vivo
Conditions: application rate 100 ppm; L1 larvae in minced horsemeat; kill after 2 days
Protocol: as §1, §2
About 20 L1 larvae of the Australian sheep blowfly (Lucilia cuprina) are transferred into a test vessel containing minced horsemeat and the active ingredient preparation of the desired concentration.
After 2 days, the kill in % is determined. 100% means that all the larvae have been killed; 0% means that none of the larvae have been killed.

| Compound | efficacy [%] |
| --- | --- |
| Cc1ncc(-c2cnn(-c3c(Cl)cc(C(F)(F)F)cc3Cl)c2)cc1C(=O)NC1CC1 [I-T3-127] | 90 |
| CNc1ncc(-c2cnn(-c3c(Cl)cc(C(F)(C(F)(F)F)C(F)(F)F)cc3Cl)c2)cc1C(=O)NC1CC1 [I-T3-136] | 100 |
| O=C(NC1CC1)c1cc(-c2cnn(-c3c(Cl)cc(C(F)(C(F)(F)F)C(F)(F)F)cc3Cl)c2)cnc1NC1CC1 [I-T3-137] | 80 |
| CCN(C(=O)c1cc(-c2cnn(-c3c(Cl)cc(C(F)(F)F)cc3Cl)c2)cnc1Cl)C1CC1 [I-T3-145] | 100 |
| Cc1cc(C(F)(C(F)(F)F)C(F)(F)F)cc(C)c1-c1cc(-c2ccc(Cl)c(C(=O)NCC(F)(F)F)c2)on1 [I-T22-3] | 100 |
| N#CC1(NC(=O)c2cc(-c3cc(-c4c(Cl)cc(C(F)(C(F)(F)F)C(F)(F)F)cc4Cl)on3)ccc2Cl)CC1 [I-T23-2] | 100 |
| Cc1cc(C(F)(C(F)(F)F)C(F)(F)F)cc(C)c1-n1ccc(-c2ccc(Cl)c(C(=O)NC3CC3)c2)c1 [I-T46-2] | 100 |

Test system: Ctenocephalides felis
Assay: Ctenocephalides felis - in vitro contact tests with adult cat fleas
Type: in vivo
Conditions: application rate 5 μg/cm^2 (=500 g/ha), after 48 h (dead or moribund)
Protocol: Ctenocephalides felis—In Vitro Contact Tests with Adult Cat Fleas
For the coating of the test tubes, 9 mg of active ingredient are first dissolved in 1 ml of acetone p.a. and then diluted to the desired concentration with acetone p.a. 250 μl of the solution are distributed homogeneously on the inner walls and base of a 25 ml test tube by turning and rocking on an orbital shaker (rocking rotation at 30 rpm for 2 h). With 900 ppm active ingredient solution and internal surface area 44.7 cm^2, given homogeneous distribution, an area-based dose of 5 μg/cm^2 is achieved.
After the solvent has evaporated off, the tubes are populated with 5-10 adult cat fleas (Ctenocephalides felis), sealed with a perforated plastic lid and incubated in a horizontal position at room temperature and ambient humidity. After 48 h, efficacy is determined. To this end, the test tubes are stood upright and the fleas are knocked to the base of the tube. Fleas which remain motionless at the base or move in an uncoordinated manner are considered to be dead or moribund.
100% efficacy means that all the fleas were dead or moribund. 0% efficacy means that no fleas were harmed.

| Compound | efficacy [%] |
| --- | --- |
| Cc1ncc(-c2cnn(-c3c(Cl)cc(C(F)(F)F)cc3Cl)c2)cc1C(=O)NC1CC1 [I-T3-127] | 100 |
| Cc1ncc(-c2cnn(-c3c(Cl)cc(C(F)(F)F)cc3Cl)c2)cc1C(=O)N(C)C1CC1 [I-T3-128] | 100 |
| Cc1ncc(-c2cnn(-c3c(Cl)cc(C(F)(F)F)cc3Cl)c2)cc1C(=O)NC1(C#N)CC1 [I-T3-129] | 100 |
| Cc1ncc(-c2cnn(-c3c(Cl)cc(C(F)(F)F)cc3Cl)c2)cc1C(=O)N(C)C1(C#N)CC1 [I-T3-132] | 100 |
| CNc1ncc(-c2cnn(-c3c(Cl)cc(C(F)(C(F)(F)F)C(F)(F)F)cc3Cl)c2)cc1C(=O)NC1CC1 [I-T3-136] | 100 |
| O=C(NC1CC1)c1cc(-c2cnn(-c3c(Cl)cc(C(F)(C(F)(F)F)C(F)(F)F)cc3Cl)c2)cnc1NC1CC1 [I-T3-137] | 100 |
| COCCNc1ncc(-c2cnn(-c3c(Cl)cc(C(F)(C(F)(F)F)C(F)(F)F)cc3Cl)c2)cc1C(=O)NC1CC1 [I-T3-138] | 100 |
| CCN(C(=O)c1cc(-c2cnn(-c3c(Cl)cc(C(F)(F)F)cc3Cl)c2)cnc1Cl)C1CC1 [I-T3-145] | 100 |
| CCNC(=O)c1cc(-c2cnn(-c3c(Cl)cc(C(F)(F)F)cc3Cl)c2)cnc1C [I-T3-147] | 100 |
| N#CC1(CNC(=O)c2cc(-c3cnn(-c4c(Cl)cc(C(F)(C(F)(F)F)C(F)(F)F)cc4C(F)(F)F)c3)ccc2Cl)CC1 [I-T3-199] | 100 |
| Cc1cc(C(F)(C(F)(F)F)C(F)(F)F)cc(C)c1-c1cc(-c2ccc(Cl)c(C(=O)NCC(F)(F)F)c2)on1 [I-T22-3] | 100 |
| N#CC1(NC(=O)c2cc(-c3cc(-c4c(Cl)cc(C(F)(C(F)(F)F)C(F)(F)F)cc4Cl)on3)ccc2Cl)CC1 [I-T23-2] | 100 |
| Cc1cc(C(F)(C(F)(F)F)C(F)(F)F)cc(C)c1-n1ccc(-c2ccc(Cl)c(C(=O)NC3CC3)c2)c1 [I-T46-2] | 100 |

Test system: Ctenocephalides felis
Assay: Ctenocephalides felis - oral test
Type: in vivo
Conditions: application rate 100 ppm in citrated cattle blood; adult fleas; kill after 2 days
Protocol: Ctenocephalides felis—Oral Test
as §1
For the purpose of producing an appropriate active ingredient formulation, 10 mg of active ingredient are mixed with 0.5 ml of dimethyl sulphoxide. Dilution with citrated cattle blood gives the desired concentration.
About 20 unfed adult cat fleas (Ctenocephalides felis) are placed into a chamber which is closed at the top and bottom with gauze. A metal cylinder whose bottom end is closed with parafilm is placed onto the chamber. The cylinder contains the blood/active ingredient preparation, which can be imbibed by the fleas through the parafilm membrane.
After 2 days, the kill in % is determined. 100% means that all of the fleas have been killed; 0% means that none of the fleas have been killed.

| Compound | efficacy [%] |
| --- | --- |
| Cc1ncc(-c2cnn(-c3c(Cl)cc(C(F)(F)F)cc3Cl)c2)cc1C(=O)NC1CC1 [I-T3-127] | 100 |
| Cc1ncc(-c2cnn(-c3c(Cl)cc(C(F)(F)F)cc3Cl)c2)cc1C(=O)N(C)C1CC1 [I-T3-128] | 100 |
| Cc1ncc(-c2cnn(-c3c(Cl)cc(C(F)(F)F)cc3Cl)c2)cc1C(=O)NC1(C#N)CC1 [I-T3-129] | 100 |
| Cc1ncc(-c2cnn(-c3c(Cl)cc(C(F)(F)F)cc3Cl)c2)cc1C(=O)N(C)C1(C#N)CC1 [I-T3-132] | 100 |
| CNc1ncc(-c2cnn(-c3c(Cl)cc(C(F)(C(F)(F)F)C(F)(F)F)cc3Cl)c2)cc1C(=O)NC1CC1 [I-T3-136] | 100 |
| O=C(NC1CC1)c1cc(-c2cnn(-c3c(Cl)cc(C(F)(C(F)(F)F)C(F)(F)F)cc3Cl)c2)cnc1NC1CC1 [I-T3-137] | 100 |
| CCN(C(=O)c1cc(-c2cnn(-c3c(Cl)cc(C(F)(F)F)cc3Cl)c2)cnc1Cl)C1CC1 [I-T3-145] | 100 |
| Cc1cc(C(F)(C(F)(F)F)C(F)(F)F)cc(C)c1-c1cc(-c2ccc(Cl)c(C(=O)NCC(F)(F)F)c2)on1 [I-T22-3] | 100 |
| N#CC1(NC(=O)c2cc(-c3cc(-c4c(Cl)cc(C(F)(C(F)(F)F)C(F)(F)F)cc4Cl)on3)ccc2Cl)CC1 [I-T23-2] | 100 |
| Cc1cc(C(F)(C(F)(F)F)C(F)(F)F)cc(C)c1-n1ccc(-c2ccc(Cl)c(C(=O)NC3CC3)c2)c1 [I-T46-2] | 100 |

Test system: not listed separately
Assay: logP determination by HPLC on a reversed-phase column (C18), EEC Directive 79/831 Annex V.A8
Type: physicochemical
Conditions: HPLC, reversed-phase C18, acetonitrile/water with formic acid, 55° C.

| Compound | logP |
| --- | --- |
| Cc1cc(C(F)(C(F)(F)F)C(F)(F)F)cc(C)c1-c1cc(-c2ccc(Cl)c(C(=O)NCC(F)(F)F)c2)on1 [I-T22-3] | 5 |
| N#CC1(NC(=O)c2cc(-c3cc(-c4c(Cl)cc(C(F)(C(F)(F)F)C(F)(F)F)cc4Cl)on3)ccc2Cl)CC1 [I-T23-2] | 4.8 |
| Cc1cc(C(F)(C(F)(F)F)C(F)(F)F)cc(C)c1-n1ccc(-c2ccc(Cl)c(C(=O)NC3CC3)c2)c1 [I-T46-2] | 5.0 |

Same assay, conditions: HPLC-MS, reversed-phase column (C18)

| Compound | log P |
| --- | --- |
| Cc1ncc(-c2cnn(-c3c(Cl)cc(C(F)(F)F)cc3Cl)c2)cc1C(=O)NC1CC1 [I-T3-127] | 2.5 |
| Cc1ncc(-c2cnn(-c3c(Cl)cc(C(F)(F)F)cc3Cl)c2)cc1C(=O)N(C)C1CC1 [I-T3-128] | 2.8 |
| Cc1ncc(-c2cnn(-c3c(Cl)cc(C(F)(F)F)cc3Cl)c2)cc1C(=O)NC1(C#N)CC1 [I-T3-129] | 2.6 |
| Cc1ncc(-c2cnn(-c3c(Cl)cc(C(F)(F)F)cc3Cl)c2)cc1C(=O)N(C)C1(C#N)CC1 [I-T3-132] | 2.9 |
| CNc1ncc(-c2cnn(-c3c(Cl)cc(C(F)(C(F)(F)F)C(F)(F)F)cc3Cl)c2)cc1C(=O)NC1CC1 [I-T3-136] | 3.5 |
| O=C(NC1CC1)c1cc(-c2cnn(-c3c(Cl)cc(C(F)(C(F)(F)F)C(F)(F)F)cc3Cl)c2)cnc1NC1CC1 [I-T3-137] | 3.4 |
| COCCNc1ncc(-c2cnn(-c3c(Cl)cc(C(F)(C(F)(F)F)C(F)(F)F)cc3Cl)c2)cc1C(=O)NC1CC1 [I-T3-138] | 4.1 |
| CCN(C(=O)c1cc(-c2cnn(-c3c(Cl)cc(C(F)(F)F)cc3Cl)c2)cnc1Cl)C1CC1 [I-T3-145] | 3.8 |
| CCNC(=O)c1cc(-c2cnn(-c3c(Cl)cc(C(F)(F)F)cc3Cl)c2)cnc1C [I-T3-147] | 4.0 |
